Data from patent US20240374879A1, “METHODS AND COMPOSITIONS TO REDUCE CELLULAR DEPOSITION, AND HYDROCEPHALUS SHUNT FAILURE” (Wayne State University, priority 2021, published 2024).

Tests used:
A1 reactive astrocytes = test: A1 reactive astrocyte attachment on PDMS coated plates (targeted drug delivery); assay type: cell-based, mouse; settings: 30 ng/ml, 48 h
Method: Purification of astrocytes by immunopanning: Astrocytes were purified by immunopanning from post-natal day (P) 5 mouse brains and cultured as previously described (Foo et al., Neuron. 71(5):799-811, 2011). Cerebral cortices were dissected and enzymatically digested using papain at 37° C. and 10% CO2. Tissue was then mechanically triturated with a serological pipette at RT to generate a single-cell suspension. The suspension was filtered and negatively panned for microglia/macrophage cells (CD45), oligodendrocyte progenitor cells (04 hybridoma), and endothelial cells (L1) followed by positive panning for astrocyte cells (ITGB5). Astrocytes were cultured in defined, serum-free medium containing 50% neurobasal, 50% DMEM, 100 U/mL penicillin, 100 μg/mL streptomycin, 1 mM sodium pyruvate, 292 μg/mL L-glutamine, 1×SATO, 5 μg/mL of N-acetyl cysteine, and 5 ng/mL HBEGF.
Targeted drug delivery: A1 reactive astrocytes were generated by culturing the purified astrocytes on PDMS coated tissue culture plates and then treating for 24 h with IL-1α (3 ng/ml, Sigma, 13901), TNF-α (30 ng/ml, Cell Signaling Technology, 8902SF), and C1q (400 ng/ml, MyBioSource, MBS143105). […]

A2 reactive astrocytes = test: A2 reactive astrocyte attachment on PDMS coated plates (targeted drug delivery); assay type: cell-based, mouse; settings: 30 ng/ml, 48 h; FIG. 5B

## TGF-β
A1 reactive astrocytes
  A1 astrocyte reactive state: reset A1 astrocytes to a non-reactive state
A1 reactive astrocytes; FIG. 5A
  attachment of A1 astrocytes on PDMS coated surfaces: significantly reducing
A2 reactive astrocytes
  attachment of A2 astrocytes on PDMS coated surfaces: did not induce
